From PubChem BioAssay AID652232 (The Scripps Research Institute Molecular Screening Center, 2013)
The source made the active and inactive calls.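 The calls were made as follows: active = blocks protein phosphatase 1 activity with an IC50 half-maximal inhibitory concentration below 10 µM; inactive = IC50 of 10 µM or higher.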

What follows are compounds tested against Serine/threonine-protein phosphatase PP1-alpha catalytic subunit (Homo sapiens) (UniProt P62136) (assay: PP1 phosphohistone dephosphorylation inhibitor potency, late-stage follow-up, biochemical, radiolabel, dose response, powder samples (AID 652232)). Conditions: purified PP1alpha, 33P-phosphohistone dephosphorylation, scintillation.
Chain of Serine/threonine-protein phosphatase PP1-alpha catalytic subunit (Homo sapiens) (P62136 whole entry, looked up): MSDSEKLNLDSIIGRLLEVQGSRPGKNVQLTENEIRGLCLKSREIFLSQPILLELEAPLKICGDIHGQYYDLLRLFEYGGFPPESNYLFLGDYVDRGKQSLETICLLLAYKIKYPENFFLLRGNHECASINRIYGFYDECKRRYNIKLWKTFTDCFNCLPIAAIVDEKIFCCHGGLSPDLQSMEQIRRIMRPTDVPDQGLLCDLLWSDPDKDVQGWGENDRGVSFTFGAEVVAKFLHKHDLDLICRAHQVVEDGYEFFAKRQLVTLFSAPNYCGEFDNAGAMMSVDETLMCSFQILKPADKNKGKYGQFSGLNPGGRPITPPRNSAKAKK

Q: For `Oc1c(C(c2ccccn2)N2CCN(c3ccccc3F)CC2)cc(Cl)c2cccnc12` (centres undefined), which IC50 is on record?
A: The IC50 was “inactive”.

Q: Which IC50 does the source give for `Oc1c(C(c2ccccn2)N2CCC(Cc3ccccc3)CC2)cc(Cl)c2cccnc12` (centres undefined) here?
A: The IC50 was 27 µM.

Q: How did the IC50 turn out when `CC(C)(C)OC(=O)N1CCN(C(c2ccccn2)c2cc(Cl)c3cccnc3c2O)CC1` (centres undefined) was run?
A: The IC50 was 44.2 µM.

Q: Which IC50 does the source give for `CC1CCN(C(c2ccccn2)c2cc(Cl)c3cccnc3c2O)CC1` (centres undefined) here?
A: Its IC50 is “inactive”.
